Experimental data: US12006330B2, “Substituted macrocyclic compounds and related methods of treatment” (Alkermes, Inc., priority 2020, dated 2024)

Columns and labels:
Assay type in all cases: in vitro ADME
MDR1 = assay: MDCK-MDR1 permeability assay; conditions: dog, MDCK-MDR1, MDCK-MDR1 cells; for efflux ratio at 2 h, 3 μM: Papp B→A divided by Papp A→B, read-out: Efflux ratio (ER); for Papp A→B at 2 h, 3 μM: test compound 3 μM, 2 hours at 37 degrees C, apical to basolateral
Method: The bidirectional permeability (Apical to Basal and Basal to Apical directions) of test compounds in MDCK-MIDR1 cells were evaluated using MDCK-MIDR1 cells seeded in Solvo PreadyPort™ MDCK 96-well plate. Once the plate was received from ReadyCell (Barcelona, Spain), it was treated as per PreadyPort™ user's manual.
For the Apical to Basolateral (A→B) permeability, 80 μL of test compound (3 μM) co-dosed with LY (Lucifer Yellow) (100 μM) in HBSS (Hank's Balanced Salt Solution) assay buffer was added to the donor side (A) while 250 μL of HBSS buffer was added to the receiver side (B). For the Basolateral to Apical (B→A) permeability, 255 μL of test compound (3 μM) in HBSS assay buffer was added to the donor side (B) while 75 μL of HBSS buffer containing LY (100 μM) was added to the receiver side (A).
The plate was placed in an incubator set at 37 degrees C. After 10 minutes of pre-warming, 5 μL aliquot was taken from donor compartment and set aside as the dosing solution. The MDCK-MDR1 incubation plate was placed back into the incubator for 2 hours of incubation at 37 degrees C. After 2 hours of incubation, 25 μL and 5 μL aliquots were removed from the receiver and donor sides, respectively. To the 5 μL aliquots taken from the donor sides (before and after a 2-hour incubation) were diluted with 20 μL of the HBSS buffer. All samples were mixed with 150 μL with acetonitrile containing internal standard (IS) and 200 μL water, and analyzed by LC-MS/MS.
The apparent permeability (Papp) was calculated using the following formula: Papp=dQ/dt×1/A×C0 where: • dQ/dt: amount of translocated material over incubation time (nmol/s) • A: area of insert (0.14 cm^2 for PreadyPort™ MDR1-96) • C0: initial concentration of product applied in apical (A→B) or basal (B→A) compartment (nmol/mL)
The efflux ratio (ER) was measured by dividing the Papp (basolateral to apical direction) by Papp (apical to basolateral direction). It is a general measure of the involvement of active processes. An ER>2 is considered positive for active transport.
Percent recovery was measured using the following equation:
[formula] where: • VR: Volume of the receiver compartment (mL) • VD: Volume of the donor compartment (mL) • CN: Concentration of dosing solution (μM) collected after 10 minutes of incubation • CR^final: Receiver concentration at the end of the incubation (μM) • CD^final: Donor concentration at the end of the incubation (μM)
The data reported in Table 3 were obtained according to the MDCK-MDR1 permeability assay described above.

[1] = Hepatocytes stability assay (human hepatocytes); conditions: both sexes, human, cryopreserved hepatocytes, cryopreserved human hepatocytes (pool of 50 mixed gender); 1 μM test compound; 1×10^6 cell/mL; 37 degrees C; read-out: CLint (μL/min/million cells)
Method: (§1) In vitro metabolic stability was assessed using cryopreserved hepatocytes from male Sprague Dawley rats and a pool of 50 mixed gender humans (BioIVT, Baltimore, MD). The incubation mixtures were prepared by mixing 250 μL of pre-warmed KHB (Krebs-Henseleit buffer) containing 2×10^6 cell/mL of hepatocytes with 250 μL of pre-warmed KHB buffer containing 2 μM of test compounds in a 48-well plate, giving a final concentration of 1 μM test compound (0.1% DMSO) and 1×10^6 cell/mL of hepatocytes. The reaction mixture was incubated at 37 degrees C. A 50 μL aliquot of incubation mixture was taken at time points (0, 15, 30, 60, 120 and 240 minutes) and transferred into a 96-well plate containing 300 μL ice-cold acetonitrile (containing 30 ng/mL of labetalol and 10 ng/mL of Naltrexone-d3 as internal standards) and immediately placed in ice to terminate the reaction. Samples were centrifuged, and supernatants were transferred into 96-well plates for liquid chromatography with tandem mass spectrometry (LC-MS/MS) analysis to monitor the depletion of the test compound.
(§2) Data was calculated as percent remaining by assuming zero-minute time point peak area ratio (analyte/IS) as 100% and dividing remaining time point peak area ratios by zero-minute time point peak area ratio. Data were fitted to a first-order decay model to determine half-life. From a plot of log (ln) peak area against time, the slope of the line was determined. Subsequently, half-life (T1/2) and intrinsic clearance (CLint) were calculated using the equations below: Elimination rate constant (k)=(−slope) Half-life (T1/2) min=0.693/k Intrinsic Clearance (CLint) (mL/min/million cells)=(V×0.693)/T1/2 V=incubation volume mL/number of cells The in vitro T1/2 was converted to in vitro intrinsic clearance (CLint,hep) in units of mL/min/kg using the formula shown below:
(§3) [formula] The in vitro intrinsic clearance (CLint,hep) was scaled to in vivo hepatic clearance (CL,hep) using the following equation which was adapted from a well-stirred model.
(§4) [formula] where Q is the liver blood flow and fu is the fraction unbound (assumed to be unity in this case). All parameters used in the calculation are shown below (Table 4).
(§5) The extraction ratio (ER) was calculated by dividing the hepatic clearance of a compound to the liver blood flow. The data reported in Table 5 were obtained according to the human hepatocytes stability assay described above.

human hepatocytes = assay: Hepatocytes stability assay (human hepatocytes); conditions: human hepatocytes; scaled hepatic clearance divided by liver blood flow (well-stirred model, fu assumed unity)
Method: as §1, §2, §3, §4, §5

Structure (SMILES) | efflux ratio at 2 h, 3 μM (MDR1) | Papp A→B at 2 h, 3 μM (MDR1) [×10⁻⁶ cm/s] | hepatocyte CLint at 1 μM [1] [µL/min/1e6 cells] | Extraction Ratio (ER) (human hepatocytes)
Cc1ccc2c(c1)OCC(=O)N1CCC[C@H](NS(C)(=O)=O)C1CO[C@H]1CC[C@@H]2CC1 (stereo in doubt) [Compound 40] | > 100 | < 0.18 | 6.4 | 0.49
O=C1COc2ccccc2[C@H]2CC[C@H](CC2)OCC2[C@@H](NS(=O)(=O)C3CCC3)CCCN12 (stereo in doubt) [Compound 42] | 7.4 | 0.92 | 36 | 0.84
O=C1COc2ccccc2[C@H]2CC[C@H](CC2)OCC2[C@@H](NS(=O)(=O)CC3CCC3)CCCN12 (stereo in doubt) [Compound 43] | 10 | 0.96 | 55 | 0.89
CC(C)(C)S(=O)(=O)N[C@H]1CCCN2C(=O)COc3ccccc3[C@H]3CC[C@H](CC3)OCC12 (stereo in doubt) [Compound 44] | 7.8 | 2 | 46 | 0.87
CS(=O)(=O)N[C@H]1CCCN2C(=O)COc3ccc(C#N)cc3[C@H]3CC[C@H](CC3)OCC12 (stereo in doubt) [Compound 46] | 81 | 0.18 | 2.8 | 0.29
CS(=O)(=O)N[C@H]1CCCN2C(=O)COc3cc(C#N)ccc3[C@H]3CC[C@H](CC3)OCC12 (stereo in doubt) [Compound 47] | > 100 | 0.19 | 4.3 | 0.39
O=C1COc2ccccc2[C@H]2CC[C@H](CC2)OCC2[C@@H](NS(=O)(=O)CC3CC3)CCCN12 (stereo in doubt) [Compound 48] | 60 | 0.56 | 41 | 0.86
Cc1cccc2c1OCCN1CCC[C@H](NS(C)(=O)=O)C1CO[C@H]1CC[C@@H]2CC1 (stereo in doubt) [Compound 49] | 0.73 | 8.6 | 58 | 0.90
Cc1ccc2c(c1)OCCN1CCC[C@H](NS(C)(=O)=O)C1CO[C@H]1CC[C@@H]2CC1 (stereo in doubt) [Compound 50] | 0.76 | 9.6 | 61 | 0.90
O=S(=O)(N[C@H]1CCCN2CCOc3ccccc3[C@H]3CC[C@H](CC3)OCC12)C1CC1 (stereo in doubt) [Compound 51] | 1.1 | 7.8 | 42 | 0.86
CC(C)S(=O)(=O)N[C@H]1CCCN2CCOc3ccccc3[C@H]3CC[C@H](CC3)OCC12 (stereo in doubt) [Compound 52] | 2.4 | 3.9 | 59 | 0.90
CCS(=O)(=O)N[C@H]1CCCN2CCOc3ccccc3[C@H]3CC[C@H](CC3)OCC12 (stereo in doubt) [Compound 53] | 1.8 | 5.6 | 58 | 0.90
Cc1ccc2c(c1)[C@H]1CC[C@H](CC1)OCC1[C@@H](NS(C)(=O)=O)CCCN1CCO2 (stereo in doubt) [Compound 54] | 2 | 5.2 | 38 | 0.85
O=S(=O)(CC1CCC1)N[C@H]1CCCN2CCOc3ccccc3[C@H]3CC[C@H](CC3)OCC12 (stereo in doubt) [Compound 55] | 31 | 0.23 | 69 | 0.91
CC(C)(C)S(=O)(=O)N[C@H]1CCCN2CCOc3ccccc3[C@H]3CC[C@H](CC3)OCC12 (stereo in doubt) [Compound 56] | 3.3 | 1.7 | 69 | 0.91
O=S(=O)(N[C@H]1CCCN2CCOc3ccccc3[C@H]3CC[C@H](CC3)OCC12)C1CCC1 (stereo in doubt) [Compound 57] | 6 | 1.7 | 65 | 0.91
CC1(S(=O)(=O)N[C@H]2CCCN3CCOc4ccccc4[C@H]4CC[C@H](CC4)OCC23)CC1 (stereo in doubt) [Compound 58] | 7.5 | 1.4 | 55 | 0.89
O=S(=O)(CC1CC1)N[C@H]1CCCN2CCOc3ccccc3[C@H]3CC[C@H](CC3)OCC12 (stereo in doubt) [Compound 59] | 5.4 | 1.67 | 62 | 0.90
Cc1ccnc2c1[C@H]1CC[C@H](CC1)OCC1[C@@H](NS(=O)(=O)C3CC3)CCCN1C(=O)CO2 (stereo in doubt) [Compound 62] | > 100 | 0.092 | 21 | 0.76
O=S(=O)(N[C@H]1CCCN2CCOc3ncccc3[C@H]3CC[C@H](CC3)OCC12)C1CC1 (stereo in doubt) [Compound 63] | 1.4 | 7.5 | 44 | 0.87
